In BindingDB's records for PubMed 27021004 (University of Warwick, 2016):

Target: T1, Phospho-N-acetylmuramoyl-pentapeptide-transferase (Bacillus subtilis (strain 168), UniProt Q03521)
T1 sequence (Q03521 whole entry): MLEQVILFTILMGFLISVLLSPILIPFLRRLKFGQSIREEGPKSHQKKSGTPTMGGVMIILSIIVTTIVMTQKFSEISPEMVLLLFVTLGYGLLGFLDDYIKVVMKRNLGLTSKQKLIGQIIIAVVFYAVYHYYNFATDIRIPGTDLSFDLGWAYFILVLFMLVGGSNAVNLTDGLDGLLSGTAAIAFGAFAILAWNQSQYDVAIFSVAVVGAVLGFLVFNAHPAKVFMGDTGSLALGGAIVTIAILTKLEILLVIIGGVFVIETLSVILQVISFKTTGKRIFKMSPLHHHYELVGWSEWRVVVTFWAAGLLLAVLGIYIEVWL
Experiment: Inhibition of Bacillus subtilis MraY

IC50: 0.4 µM
SMILES: NC[C@H]1O[C@@H](O[C@@H](Cn2cc(CCCCCO)nn2)[C@H]2O[C@@H](n3ccc(=O)[nH]c3=O)[C@H](O)[C@@H]2O)[C@H](O)[C@@H]1O
